Data on 42 compounds can be found in patent US8969386B2, “Modulators of CFTR” (Vertex Pharmaceuticals Incorporated, priority 2007, dated 2015).

In the experiment the target is T1, ΔF508-CFTR (Homo sapiens, UniProt P13569, DEL508-508).
T1 construct: expressed in transfected cells
The experiment can be described thus: ΔF508-CFTR correction, membrane potential optical (FRET/VIPR) assay. It is filed as cell-based. The following applies: NIH3T3 mouse fibroblasts stably expressing ΔF508-CFTR; for Emax: read-out: % Efficacy. From the text: Assays for Detecting and Measuring ΔF508-CFTR Correction Properties of Compounds
Membrane potential optical methods for assaying ΔF508-CFTR modulation properties of compounds
The optical membrane potential assay utilized voltage-sensitive FRET sensors described by Gonzalez and Tsien (See Gonzalez, J. E. and R. Y. Tsien (1995) “Voltage sensing by fluorescence resonance energy transfer in single cells” Biophys J 69(4): 1272-80, and Gonzalez, J. E. and R. Y. Tsien (1997) “Improved indicators of cell membrane potential that use fluorescence resonance energy transfer” Chem Biol 4(4): 269-77) in combination with instrumentation for measuring fluorescence changes such as the Voltage/Ion Probe Reader (VIPR) (See Gonzalez, J. E., K. Oades, et al. (1999) “Cell-based assays and instrumentation for screening ion-channel targets” Drug Discov Today 4(9): 431-439).
These voltage sensitive assays are based on the change in fluorescence resonant energy transfer (FRET) between the membrane-soluble, voltage-sensitive dye, DiSBAC2(3), and a fluorescent phospholipid, CC2-DMPE, which is attached to the outer leaflet of the plasma membrane and acts as a FRET donor. Changes in membrane potential (Vm) cause the negatively charged DiSBAC2(3) to redistribute across the plasma membrane and the amount of energy transfer from CC2-DMPE changes accordingly. The changes in fluorescence emission were monitored using VIPR™ II, which is an integrated liquid handler and fluorescent detector designed to conduct cell-based screens in 96- or 384-well microtiter plates.
1. Identification of Correction Compounds
To identify small molecules that correct the trafficking defect associated with ΔF508-CFTR; a single-addition HTS assay format was developed. The cells were incubated in serum-free medium for 16 hrs at 37° C. in the presence or absence (negative control) of test compound. As a positive control, cells plated in 384-well plates were incubated for 16 hrs at 27° C. to “temperature-correct” ΔF508-CFTR. The cells were subsequently rinsed 3× with Krebs Ringers solution and loaded with the voltage-sensitive dyes. To activate ΔF508-CFTR, 10 μM forskolin and the CFTR potentiator, genistein (20 μM), were added along with Cl^−-free medium to each well. The addition of Cl^−-free medium promoted Cl^− efflux in response to ΔF508-CFTR activation and the resulting membrane depolarization was optically monitored using the FRET-based voltage-sensor dyes.
NIH3T3 mouse fibroblasts stably expressing ΔF508-CFTR are used for optical measurements of membrane potential. The cells are maintained at 37° C. in 5% CO2 and 90% humidity in Dulbecco's modified Eagle's medium supplemented with 2 mM glutamine, 10% fetal bovine serum, 1×NEAA, β-ME, 1× pen/strep, and 25 mM HEPES in 175 cm^2 culture flasks. For all optical assays, the cells were seeded at 30,000/well in 384-well matrigel-coated plates and cultured for 2 hrs at 37° C. before culturing at 27° C. for 24 hrs for the potentiator assay. For the correction assays, the cells are cultured at 27° C. or 37° C. with and without compounds for 16-24 hours Electrophysiological Assays for assaying ΔF508-CFTR modulation properties of compounds

T1 sequence (P13569 with tags, fused parts or gaps DEL508-508): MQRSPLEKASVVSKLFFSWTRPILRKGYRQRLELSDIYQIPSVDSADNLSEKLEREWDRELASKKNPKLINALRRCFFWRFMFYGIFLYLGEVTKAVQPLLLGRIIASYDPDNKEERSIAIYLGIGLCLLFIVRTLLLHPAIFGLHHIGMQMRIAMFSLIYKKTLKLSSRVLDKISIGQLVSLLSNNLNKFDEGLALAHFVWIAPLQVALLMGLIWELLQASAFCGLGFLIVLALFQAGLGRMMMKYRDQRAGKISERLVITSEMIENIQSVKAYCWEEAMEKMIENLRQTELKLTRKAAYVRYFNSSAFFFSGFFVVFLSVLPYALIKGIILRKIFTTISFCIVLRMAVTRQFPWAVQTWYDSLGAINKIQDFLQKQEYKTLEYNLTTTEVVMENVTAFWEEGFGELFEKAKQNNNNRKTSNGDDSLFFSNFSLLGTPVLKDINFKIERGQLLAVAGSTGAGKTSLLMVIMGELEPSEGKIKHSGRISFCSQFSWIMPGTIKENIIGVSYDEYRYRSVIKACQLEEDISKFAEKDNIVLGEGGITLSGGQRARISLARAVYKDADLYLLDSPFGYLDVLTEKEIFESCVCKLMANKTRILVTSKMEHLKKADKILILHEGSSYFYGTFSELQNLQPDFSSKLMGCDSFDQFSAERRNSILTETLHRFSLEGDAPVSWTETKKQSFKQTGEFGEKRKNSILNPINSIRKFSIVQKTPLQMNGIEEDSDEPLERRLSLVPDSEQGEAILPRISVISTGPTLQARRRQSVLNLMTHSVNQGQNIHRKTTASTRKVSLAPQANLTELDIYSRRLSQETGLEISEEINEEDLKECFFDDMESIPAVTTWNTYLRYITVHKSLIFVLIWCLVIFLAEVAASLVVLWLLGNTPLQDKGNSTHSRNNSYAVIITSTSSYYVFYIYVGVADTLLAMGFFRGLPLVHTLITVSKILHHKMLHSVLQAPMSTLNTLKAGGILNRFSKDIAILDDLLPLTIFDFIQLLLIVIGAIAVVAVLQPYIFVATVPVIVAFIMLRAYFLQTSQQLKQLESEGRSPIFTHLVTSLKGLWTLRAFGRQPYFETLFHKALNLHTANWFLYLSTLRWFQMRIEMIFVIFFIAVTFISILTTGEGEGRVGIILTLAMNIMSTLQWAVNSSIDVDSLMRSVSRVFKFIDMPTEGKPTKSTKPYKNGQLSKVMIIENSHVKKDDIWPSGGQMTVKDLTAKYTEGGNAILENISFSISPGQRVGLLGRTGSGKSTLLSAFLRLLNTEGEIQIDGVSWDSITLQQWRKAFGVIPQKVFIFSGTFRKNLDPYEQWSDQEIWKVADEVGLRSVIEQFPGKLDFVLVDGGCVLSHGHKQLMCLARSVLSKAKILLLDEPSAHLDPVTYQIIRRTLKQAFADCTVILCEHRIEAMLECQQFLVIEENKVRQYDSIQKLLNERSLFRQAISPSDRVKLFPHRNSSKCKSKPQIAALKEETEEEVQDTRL

For the compound `Cc1ccc(NC(=O)C2(c3ccc4c(c3)OC(F)(F)O4)CC2)nc1-c1ccc(=O)n(C)c1` [Compound 52], the EC50 is < 2000 nM and the Emax was 50 to 100%.

For `COc1ncccc1-c1cccc(NC(=O)C2(c3ccc4c(c3)OCO4)CC2)n1` [Compound 93], the half-maximal effective concentration (EC50) is < 2000 nM and the Emax is > 100%.

For `COc1ccc(-c2nc(NC(=O)C3(c4ccc5c(c4)OC(F)(F)O5)CC3)cc(C)c2C)c(C)n1` [Compound 103], the EC50 is < 2000 nM and the Emax is > 100%.

With `Cc1ccc(NC(=O)C2(c3ccc4c(c3)OC(F)(F)O4)CC2)nc1-c1c[nH]c(=O)c(C(=O)O)c1` [Compound 23], the EC50 fell in the range of 2000 to 5000 nM and the Emax is 50 to 100%.

As to `Cc1cc(NC(=O)C2(c3ccc4c(c3)OC(F)(F)O4)CC2)nc(-c2c[nH]c(=O)c(C)c2)c1C` [Compound 111], the EC50 was < 2000 nM and the Emax was > 100%.

With `Cc1cc(=O)[nH]cc1-c1nc(NC(=O)C2(c3ccc4c(c3)OC(F)(F)O4)CC2)cc(C)c1C` [Compound 90], the EC50 was < 2000 nM and the Emax is > 100%.

Consider `COc1cc(C)c(-c2nc(NC(=O)C3(c4ccc5c(c4)OC(F)(F)O5)CC3)cc(C)c2C)cn1` [Compound 89], for which the concentration for a half-maximal effect (EC50) is < 2000 nM and the Emax is > 100%.

For the compound `COc1ncc(-c2nc(NC(=O)C3(c4ccc5c(c4)OC(F)(F)O5)CC3)ccc2C)cc1NC(C)=O` [Compound 33], the EC50 is < 2000 nM and the Emax was > 100%.

With `Cc1ccc(NC(=O)C2(c3ccc4c(c3)COC4)CC2)nc1-c1c[nH]c(=O)c(C)c1` [Compound 59], the EC50 lay in the range of 2000 to 5000 nM and the Emax lay in the range of 50 to 100%.

For the compound `Cc1ccc(NC(=O)C2(c3ccc4c(c3)OC(F)(F)O4)CC2)nc1-c1cc(Cl)c[nH]c1=O` [Compound 85], the EC50 is < 2000 nM and the Emax was > 100%.

As for `COc1ccc(C2(C(=O)Nc3ccc(C)c(-c4ccc(OC)nc4)n3)CC2)cc1` [Compound 2], the EC50 is < 2000 nM and the Emax fell in the range of 50 to 100%.

Turning to `Cc1ccc(NC(=O)C2(c3ccc4c(c3)OC(F)(F)O4)CC2)nc1-c1ccc(=O)n(CC#N)c1` [Compound 97], the EC50 is < 2000 nM and the Emax was 50 to 100%.

In the case of `Cc1cc(NC(=O)C2(c3ccc4c(c3)CCO4)CC2)nc(-c2cc[nH]c(=O)c2)c1C` [Compound 109], the EC50 is < 2000 nM and the Emax fell in the range of 50 to 100%.

As for `COC(=O)Cn1cc(-c2nc(NC(=O)C3(c4ccc5c(c4)OC(F)(F)O5)CC3)ccc2C)cc(C#N)c1=O` [Compound 110], the EC50 was < 2000 nM and the Emax was 50 to 100%.

As to `Cc1ccc(NC(=O)C2(c3ccc4c(c3)OC(F)(F)O4)CC2)nc1-c1ccc(=O)n(CCO)c1` [Compound 20], the EC50 was < 2000 nM and the Emax is > 100%.

Regarding `Cc1ccc(NC(=O)C2(c3ccc4c(c3)OC(F)(F)O4)CC2)nc1-c1c[nH]c(=O)c(N)c1` [Compound 77], the concentration for a half-maximal effect (EC50) was < 2000 nM and the Emax is > 100%.

`COc1ncc(-c2nc(NC(=O)C3(c4ccc5c(c4)OC(F)(F)O5)CC3)cc(C)c2C)cc1C` [Compound 104]: the EC50 is < 2000 nM and the Emax was in the range of 50 to 100%.

Consider `Cc1cc(NC(=O)C2(c3ccc4c(c3)CCO4)CC2)nc(-c2cc[nH]c(=O)c2)c1` [Compound 70], for which the EC50 was < 2000 nM and the Emax lay in the range of 50 to 100%.

`Cc1ccc(NC(=O)C2(c3ccc4c(c3)CCC4)CC2)nc1-c1ccc(=O)[nH]c1` [Compound 115]: the EC50 is < 2000 nM and the Emax lay in the range of 50 to 100%.

`Cc1cc(NC(=O)C2(c3ccc4c(c3)CCO4)CC2)nc(-c2ccc(=O)[nH]c2)c1` [Compound 68]: the EC50 was < 2000 nM and the Emax fell in the range of 50 to 100%.

Turning to `COc1ncc(-c2nc(NC(=O)C3(c4ccc5c(c4)OC(F)(F)O5)CC3)ccc2C)cc1C(=O)N(C)C` [Compound 73], the EC50 is < 2000 nM and the Emax lay in the range of 50 to 100%.

Turning to `Cc1ccc(NC(=O)C2(c3ccc4c(c3)OC(F)(F)O4)CC2)nc1-c1cccc(=O)[nH]1` [Compound 50], the EC50 was < 2000 nM and the Emax was 50 to 100%.

Consider `Cc1cc(NC(=O)C2(c3ccc4c(c3)OC(F)(F)O4)CC2)nc(-c2ccc(=O)[nH]c2)c1` [Compound 27], for which the EC50 is < 2000 nM and the Emax was > 100%.

On to `Cc1ncc(NC(=O)C2(c3ccc4c(c3)OC(F)(F)O4)CC2)nc1-c1ccc[nH]c1=O` [Compound 54], for which the half-maximal effective concentration (EC50) is < 2000 nM and the Emax is 50 to 100%.

As for `Cc1ccc(NC(=O)C2(c3ccc4c(c3)OC(F)(F)O4)CC2)nc1-c1ccn(CC(=O)O)c(=O)c1` [Compound 47], the EC50 is < 2000 nM and the Emax was < 50%.

Turning to `CC(=O)Nc1cc(-c2nc(NC(=O)C3(c4ccc5c(c4)OC(F)(F)O5)CC3)ccc2C)c[nH]c1=O` [Compound 4], the EC50 was < 2000 nM and the Emax lay in the range of 50 to 100%.

Turning to `Cc1cc(NC(=O)C2(c3ccc4c(c3)CCO4)CC2)nc(-c2ccc[nH]c2=O)c1C` [Compound 114], the EC50 is < 2000 nM and the Emax was 50 to 100%.

Turning to `COc1ccc(-c2nc(NC(=O)C3(c4ccc5c(c4)CCO5)CC3)cc(C)c2C)cn1` [Compound 101], the EC50 was < 2000 nM and the Emax is > 100%.

On to `COc1cccc(C2(C(=O)Nc3ccc(C)c(-c4c[nH]c(=O)c(C)c4)n3)CC2)c1` [Compound 63], for which the EC50 was < 2000 nM and the Emax lay in the range of 50 to 100%.

Regarding `Cc1ccc(NC(=O)C2(c3ccc4c(c3)OC(F)(F)O4)CC2)nc1-c1ccc(=O)[nH]c1C` [Compound 40], the EC50 was < 2000 nM and the Emax was > 100%.

`CCc1ccc(NC(=O)C2(c3ccc4c(c3)OC(F)(F)O4)CC2)nc1-c1ccc(OC)nc1` [Compound 30]: the EC50 was < 2000 nM and the Emax fell in the range of 50 to 100%.

On to `COc1cc(-c2nc(NC(=O)C3(c4ccc5c(c4)OC(F)(F)O5)CC3)ccc2C)cnc1OC` [Compound 72], for which the EC50 is < 2000 nM and the Emax is > 100%.

Regarding `COc1ncc(-c2nc(NC(=O)C3(c4ccc5c(c4)OC(F)(F)O5)CC3)ccc2C)cc1F` [Compound 43], the EC50 was < 2000 nM and the Emax is > 100%.

Regarding `Cc1cc(NC(=O)C2(c3ccc4c(c3)CCO4)CC2)nc(-c2ccc(=O)[nH]c2)c1C` [Compound 112], the EC50 is < 2000 nM and the Emax is 50 to 100%.

For `CCc1ccc(NC(=O)C2(c3ccc4c(c3)OC(F)(F)O4)CC2)nc1-c1ccc(=O)[nH]c1` [Compound 5], the EC50 is < 2000 nM and the Emax fell in the range of 50 to 100%.

On to `CNC(=O)c1cc(-c2nc(NC(=O)C3(c4ccc5c(c4)OC(F)(F)O5)CC3)ccc2C)c[nH]c1=O` [Compound 32], for which the EC50 was in the range of 2000 to 5000 nM and the Emax fell in the range of 50 to 100%.

On to `Cc1ccc(NC(=O)C2(c3ccc4c(c3)OC(F)(F)O4)CC2)nc1-c1c[nH]c(=O)c(F)c1` [Compound 39], for which the EC50 was < 2000 nM and the Emax was 50 to 100%.

As for `COc1cc(-c2nc(NC(=O)C3(c4ccc5c(c4)OC(F)(F)O5)CC3)ccc2C)cc(C)n1` [Compound 105], the EC50 was < 2000 nM and the Emax lay within 50 to 100%.

On to `Cc1cc(NC(=O)C2(c3ccc4c(c3)OC(F)(F)O4)CC2)nc(-c2ccc[nH]c2=O)c1C` [Compound 66], for which the EC50 was < 2000 nM and the Emax is > 100%.

As for `Cc1ccc(NC(=O)C2(c3ccc4c(c3)OC(F)(F)O4)CC2)nc1-c1ccc(=O)[nH]c1` [Compound 12], the half-maximal effective concentration (EC50) is < 2000 nM and the Emax is 50 to 100%.

For `Cc1ccc(NC(=O)C2(c3ccc(Cl)cc3)CC2)nc1-c1c[nH]c(=O)c(C)c1` [Compound 61], the EC50 was < 2000 nM and the Emax fell in the range of 50 to 100%.

`COC(=O)Cn1ccc(-c2nc(NC(=O)C3(c4ccc5c(c4)OC(F)(F)O5)CC3)ccc2C)cc1=O` [Compound 16]: the EC50 was < 2000 nM and the Emax lay within 50 to 100%.
